Source: US20260227408A1, “Compositions and Methods for Modulation of Immune Responses” (Flagship Pioneering Innovations VI, LLC, priority 2022, published 2026)

Assays:
[1] = system: Raji cells (human B cell lymphoma); test: pooled CRISPR KO screen: Raji cell killing by primary NK cells; type: cell-based; details: CRISPR KO of the protein in Raji cells, 24 hours co-culture with primary NK cells; for co-stimulatory effect on NK cytotoxicity (loss of function inhibits Raji cell killing): Example 4; for inhibitory effect on NK cytotoxicity (loss of function potentiates Raji cell killing): Example 5
Experimental: CRISPR system was used to generate a pooled KO library comprising 4,708 individual novel proteins within 2,127 lncRNAs and 998 known proteins in Raji cells (human B cell lymphoma). To understand the role of these proteins in modulation of NK cell cytotoxicity we conducted a cell killing assay using primary human NK cells. We examined the change in the initial library representation in Raji cells with the library representation after 24 hours of co-incubation with NK cells. We used known regulators of NK cell cytotoxicity as reference to establish hit significance.
CRISPR KO generation. CRISPR guide RNA library has been designed at ProFound Therapeutics to target 4,708 distinct predicted novel proteins localized within 2,127 lncRNA, 998 known proteins, including positive (inhibitors, for example B2M, TAP1, TAP2, HLA-DM) and negative (co-stimulators, for example, ICAM1, FAS, IL7, DGKE) of NK cell function, and 900 neutral controls (non-targeting and intergenic guide RNAs). The CRISPR guide RNA library was packaged into lentivirus, transduced into Raji Cas9 line at the MOI of 0.3 and selected using puromycin selection as described in [Sanjana N E, Shalem O, Zhang F. Nat. Methods. 2014 August; 11(8):783-4.
NK isolation and expansion. Primary human NK cells were isolated from frozen PBMCs using EasySep human NK cell isolation kit (StemCell, catalog #17955). Primary human NK cells were expanded using immunoCult NK cell expansion kit (StemCell, catalog #100-0711) following manufacturer protocol.
Screen setup. The screen was performed using 4 biological replicates. The NK cytotoxicity assay was performed by co-culturing 20 million Raji CRISPR KO library cells with 60 million primary NK cells for 24 hours in T75 tissue culture flask. NK cells were removed using positive CD56 selection kit (StemCell, catalog #17855). Dead cells were removed using EasySep dead cell removal (Annexin V) kit (StemCell, catalog #17899). Remaining Raji CRISPR KO library cells have been processed to extract genomic DNA. NGS library prep and illumina sequencing was performed on these cells and Raji cells prior to exposure to NK as described in [Sanjana N E, Shalem O, Zhang F. Nat. Methods. 2014 August; 11(8):783-4.
Data analysis. Screen analysis and interpretation was performed using ProFound Tx custom data analysis tools and confirmed with MAGeCK-VISPR as described in [Li W, Koster J, Xu H, Chen C H, Xiao T, Brown M, Liu S. Genome Biology 2015(281)].
Data analysis. Screen analysis and interpretation has been performed using ProFound Tx custom data analysis tools and confirmed with MAGeCK-VISPR as described in [Li W, Koster J, Xu H, Chen C H, Xiao T, Brown M, Liu S. Genome Biology 2015(281)].

[2] = system: Interferon Regulatory Factor (IRF) pathway in THP-1 dual reporter cells; test: THP-1 dual reporter assay (IRF-Lucia luciferase) with TLR agonists; type: cell-based
Experimental: (§1) To determine the effect of the Target Protein on TLR activity, the Target Protein, irrelevant proteins and controls were applied+/−established TLR agonists to a commercial reporter cell line which monitors the two main signal transduction pathways that respond to TLR activation. To determine which immune cells are most responsive to the Target Proteins, the Target Proteins were applied to Peripheral Blood Mononuclear Cells (PBMCs) and then 24 hours later the PBMCs were subjected to single cell RNA-seq using cell hashing.
Dual Reporter Assay: From example: NF-kB-SEAP and IRF-Lucia luciferase reporter monocyte (THP1) cells (InvivoGen) are cultured in RPMI 1640 media supplemented with HEPES buffer (10 mM), sodium pyruvate (1 mM), glucose (4.5 g/L), fetal bovine serum (10%), penicillin (100 U/mL), streptomycin ([…]), and 2-mercaptoethanol (0.05 mM). THP1 cells are treated with 100 ng/mL LPS (Sigma-Aldrich) for 24 hrs, the target protein (final conc. 10 μM), or left untreated.
After treatment, THP1 cells are cultured for 24 hrs and then assayed for reporter activity. Both reporter proteins are measurable in the cell culture supernatant when using QUANTI-Blue (InvivoGen), a SEAP detection reagent, and QUANTI-Luc (InvivoGen), a luciferase detection reagent. QUANTI-Blue is a colorimetric enzyme assay developed to determine any alkaline phosphatase activity in a biological sample, such as cell culture supernatant. QUANTI-Luc is a lyophilized assay reagent containing all the components required to quantitatively measure the activity of Lucia Luciferase other coelenterazine-utilizing luciferases. Increased reporter activity after treatment with target protein is observed in cells where the target protein is immune stimulating. Additionally, decreased reporter activity after treatment with the target protein is observed in cells where the target protein is immune dampening.

[3] = system: Peripheral Blood Mononuclear Cells (PBMCs); test: single cell RNA-seq of PBMCs treated with target protein; type: cell-based, human; details: 24 hours, vs scrambled protein control, FIG. 5A, 5B
Experimental: as §1
scRNA-seq: From example: Shifts in cell populations after treatment with Target Proteins are assessed by single cell RNA-seq (scRNA-seq). Target proteins (e.g., listed in the Sequence Listing) are synthesized through Fluorenylmethyloxycarbonyl (Fmoc) protection group chemistry using Solid Phase Peptide Synthesis (SPPS). Human primary blood mononuclear cells are seeded at […] in each well of 12-well plate with 1 ml of RPMI-1640 (10% FBS). […]
Post sequencing, reads are aligned to the human reference genome (GENCODE34/GRCH38). Reads are demultiplexed using DNA-barcoded antibodies and run through quality control (g. doublets are removed, singlet cells are selected with less than 15% mitochondria contamination at RNA levels and reads contain higher than 500 genes). […]

[4] = 10 μM, 24 hours, vs scramble peptide, FIG. 4

SEQ ID NO: 33482: novel co-stimulatory ligand that potentiates NK-mediated cytotoxicity; lncRNA-encoded protein (VVTGSILLSLPITQHLPLKALPRPGLPPFKMSGSVQDLLLGHIALLGLVQVILPPQPPK; listed as Homo sapiens)
co-stimulatory effect on NK cytotoxicity (loss of function inhibits Raji cell killing) [1]: strong phenotypes

SEQ ID NO: 35586: novel inhibitory ligand that suppresses NK-mediated cytotoxicity; lncRNA encoded protein (MWQNLNGDISSLWVSSLLAFNQLFCLTAAGLGTAQPP; listed as Homo sapiens)
inhibitory effect on NK cytotoxicity (loss of function potentiates Raji cell killing) [1]: strong phenotypes

SEQ ID NO: 37413: Target Protein validated as a modulator of the innate immune response; toll-like receptor (TLR) inhibitor (MAAPSNKTELAWSPRLAA; listed as Homo sapiens)
IRF response, co-treatment with TLR1/2 agonist [2, 4]: inhibited | IRF response, co-treatment with TLR2 agonist [2, 4]: no significant effect | IRF response, co-treatment with TLR3 agonist [2, 4]: no significant effect | IRF response, co-treatment with TLR4 agonist [2, 4]: inhibited | IRF response, co-treatment with TLR5 agonist [2, 4]: no significant effect | IRF response, co-treatment with TLR6/2 agonist [2, 4]: inhibited | IRF response, co-treatment with TLR7 agonist [2, 4]: no significant effect | IRF response, co-treatment with TLR8 agonist [2, 4]: no significant effect | IRF response, co-treatment with TLR9 agonist [2, 4]: no significant effect | IRF signal transduction pathway response from several TLRs ([2]; THP-1 dual reporter cells, FIG. 3, FIG. 4): significantly blocks | relative IRF activity (reporter gene expression) ([2]; increasing peptide concentrations (0, 2.5, 5, 7.5, and 10 PM) in presence of LPS, 24 hours, FIG. 3): inhibition | effect on T-cells, B-cells, and NK-cells (up- and downregulated genes, scRNA-seq) [3]: relatively small effects | effect on active monocytes and dendritic cells (up- and downregulated genes, scRNA-seq) [3]: strongly affected

B1: SEQ ID NO: 37776: novel co-stimulatory ligand that potentiates NK-mediated cytotoxicity; lncRNA-encoded protein (protein, listed as Homo sapiens)
chain: MACIYPTTFYTSLPTKSLNMGISLTTILILSVAVLLSTAAPPSCRECYQSLHYRGEMQQYFTYHTHIERSCYGNLIEECVESGKSYYKVKNLGVCGSRNGAICPRGKQWLCFTKIGQWGVNTQVLEDIKREQIIAKAKASKPTTPPENRPRHFHSFIQKL
co-stimulatory effect on NK cytotoxicity (loss of function inhibits Raji cell killing) [1]: strong phenotypes

B2: SEQ ID NO: 35050: novel co-stimulatory ligand that potentiates NK-mediated cytotoxicity; lncRNA-encoded protein (protein, listed as Homo sapiens)
chain: IYAHVGTEESSVVAMFSPQELTGEGMGQDPSLCKASVTVMFQVFLMTVCLYLTVLLTNNLLGSKGQHLLSKAQEEFEEN
co-stimulatory effect on NK cytotoxicity (loss of function inhibits Raji cell killing) [1]: strong phenotypes

B3: SEQ ID NO: 2013: novel inhibitory ligand that suppresses NK-mediated cytotoxicity; lncRNA encoded protein (protein, listed as Homo sapiens)
chain: MLSEGKPIPRREGKTATTERTFAVPVWKEIGISWRGLASTAGLFKSSTSILEENNADSRKMACHFGMCLAALLIKGKVLFFTF
inhibitory effect on NK cytotoxicity (loss of function potentiates Raji cell killing) [1]: strong phenotypes

B4: SEQ ID NO: 36545: novel inhibitory ligand that suppresses NK-mediated cytotoxicity; lncRNA encoded protein (protein, listed as Homo sapiens)
chain: MPEDLLFLDAAAQGLYFMLWLLSFELSVAVSELLRFTGPWRILSYTVHWVLDMQSVPFIAFLENNN
inhibitory effect on NK cytotoxicity (loss of function potentiates Raji cell killing) [1]: strong phenotypes
